The text below walks through data of US20140242151A1, “ADHESIVE SKIN PATCH” (Sekisui Chemical Co., Ltd., priority 2003, published 2014).

For this data set the following is noted: for Stable dissolution in resolvents of the invention: in 2-octyl-1-dodecanol, 2-hexyl-1-decanol, isostearyl alcohol or oleyl alcohol, temperature range of 4 to 50° C. Here is the method: 50 or 150 parts by weight of tulobuterol was added to each of the following resolvents in such a manner that the total amount of an obtained tulobuterol solution became 1000 parts by weight: 2-octyl-1-dodecanol (manufactured by Cognis Japan Ltd., under the trade name of “EUTANOL G”), 2-hexyl-1-decanol (manufactured by Cognis Japan Ltd., under the trade name of “EUTANOL G16N”), isostearyl alcohol (manufactured by Kokyu Alcohol Kogyo Co., Ltd., under the trade name of “Isostearyl Alcohol EX”), oleyl alcohol (manufactured by Kokyu Alcohol Kogyo Co., Ltd., under the trade name of “Oleyl Alcohol VP”), cetanol (hexadecyl alcohol) (manufactured by NOF Corporation, under the trade name of “NAA-44”), isopropyl myristate (manufactured by Nikko Chemicals Co., Ltd., under the trade name of “IPM-100”), decyl oleate (manufactured by Cognis Japan Ltd., under the trade name of “CETIOL V”), medium chain triglyceride (manufactured by NOF Corporation, under the trade name of “PANACET 800”), polyethylene glycol (manufactured by Maruishi Pharmaceutical Co., Ltd., under the trade name of “MACROGOL 400 (Japanese Pharmacopoeia)”), propylene glycol (manufactured by Maruishi Pharmaceutical Co., Ltd., under the trade name of “Propylene Glycol (Japanese Pharmacopoeia)”), and liquid paraffin (manufactured by Sankei Sangyo K.K., under the trade name of “Liquid Paraffin No. 350”). Each of the thus obtained tulobuterol solutions was kept at 50° C. for 120 minutes, and was then kept at 20° C. for 24 hours, and was further kept at 4° C. for 24 hours.
At this time, the tulobuterol solution was visually observed to see whether crystalline tulobuterol was deposited or not after the completion of each warming of the tulobuterol solution at 50, 20 or 4° C. The results are shown in Table 1 wherein the mark “◯” represents a case where crystalline tulobuterol was not observed, and the mark “X” represents a case where crystalline tulobuterol was observed.
The solubility of each of these drugs in these resolvents was determined in the same manner as in a case where the solubility of tulobuterol in these resolvents was determined.
50 or 150 parts by weight of tyramine (manufactured by Tokyo Chemical Industries Co., Ltd.) was added to each of the above-mentioned resolvents (i.e., 2-octyl-1-dodecanol, isopropyl myristate, polyethylene glycol, and propylene glycol) in such a manner that the total amount of an obtained tyramine solution became 1000 parts by weight. The solubility of tyramine in these resolvents was determined in the same manner as in a case where the solubility of tulobuterol in these resolvents was determined.

Regarding `CNC[C@H](O)c1ccc(O)c(O)c1` [epinephrine], the “Stable dissolution in resolvents of the invention” value (shortened to “Stable dissolution in resolvents”) is recorded as “not stably dissolved”.
Same read-out and setting: for `CCCCOC(=O)[C@@H](N)Cc1ccc(O)c(O)c1` [levodopa butyl ester] the value was “not stably dissolved”; for `CCOc1ccc(NC(C)=O)cc1` [phenacetin], “not stably dissolved”.
Consider `N[C@@H](Cc1ccccc1)C(=O)O` [phenylalanine], for which the “Stable dissolution in resolvents” value is listed as “not stably dissolved”.
Turning to `CC(C)(C)NCC(O)c1ccccc1Cl` (stereo not shown) [tulobuterol], the “Stable dissolution in resolvents” value is listed as “stably dissolved”. The Dissolution in cetanol result (resolvent cetanol, solution kept at 50° C.) was “completely dissolved”.
As to `NCCc1ccc(O)cc1` [tyramine], the “Stable dissolution in resolvents” value was “not stably dissolved”.
